# Assay results taken from US20130225529A1, “PHOSPHO-ESTER DERIVATIVES AND USES THEREOF” (priority 2012, published 2013).
# Where two headings read alike, the source gives them in different places.
# What was measured:
# skin papillomas = assay: DMBA/TPA-induced skin papillomas in FVB mice; format: in vivo
# From the text: This initiation-promotion protocol leads to papillomas by wk 10, and in a fraction of the mice to SCC by wk 20. […] Criteria similar to those used for human papilloma classification were applied to assess disease progression: hyperplasia→papilloma (Pap 1-3)→microinvasive SCC (M1-3)→invasive SCC. On wk 20, the study was terminated.
# β-catenin signaling = assay: β-catenin transcriptional activity (TOPflash) in HEK293T cells; format: cell-based; settings: 5 μM each; control 1.23±0.11
# [1] = system: A549 human non-small lung cancer cells; assay: Orthotopic A549 lung tumor model in nude mice; format: in vivo; settings: 200 mg/kg once a week for 8 weeks
# U87 cells = assay: 24-h growth inhibition of U87 glioblastoma cells; format: cell-based; settings: Homo sapiens, U-87 MG; U87, 24 h
# Protocol: U87 cells were treated with sulindac and ibuprofen as well as with the compounds. U87 is a human primary glioblastoma cell line, formally known as U-87 MG. This cell line has epithelial morphology, and is one of the most frequently used glioblastoma cell lines.
# A549 cells [2] = assay: Cell proliferation by BrdU staining; format: cell-based, human; settings: 60 μM (indomethacin equimolar)
# SW480 cells = assay: Cell cycle by PI staining; format: cell-based, human; settings: 1×IC50 PTI; indomethacin at equimolar concentration; control 56.8
# SW480 colon cancer cells = assay: SW480 colon cancer xenografts, prevention protocol, PTI; format: in vivo, mice; settings: oral gavage; PTI 10 mg/kg/d, indomethacin 2 mg/kg/d; end of study
# PGE2 production = PGE2 production by A549 cells; format: cell-based, human
# [3] = mouse, in vivo, ip
# [4] = format: in vivo, mice; settings: 55° C. hot plate, 30 min after single i.p. dose; 100 mg/kg, PI-PEG 1,600 mg/kg; control 1.91 ± 0.46
# A431 skin cancer cells = assay: Cellular uptake in A431 cells (HPLC); settings: 100 μM for 1 h
# MDA-MB-231 = assay: Cell viability (MTT), MDA-MB-231; format: cell-based; settings: Homo sapiens, MDA-MB-231, 72 h
# HT29 = assay: Cell viability (MTT), HT29; format: cell-based; settings: Homo sapiens, HT-29; HT29, 72 h
# A549 cells [5] = assay: Apoptosis by annexin V and PI staining; format: cell-based, human; settings: 72 h, control 7.5%
# Protocol: After the A549 cells were treated with the test drug in 6-well plates for 72 h, all cell populations (suspended and attached) were collected and stained with annexin V-FITC and propidium iodide (PI) (Invitrogen, Carlsbad, Calif.) for 15 min. Annexin V-FITC and PI fluorescence intensities were analyzed by flow cytometry with a FACScalibur. Annexin V(+)/PI(−) cells are early apoptotic cells; annexin V(+)/PI(+) cells are late apoptotic cells; and annexin V(−)/PI(+) cells are necrotic cells.
# A549 cells [6] = assay: Cellular uptake of PTI and indomethacin; format: in vitro ADME, human
# Protocol: A549 cells were seeded in […] plates and allowed to grow as a monolayer. […] The incubation was terminated by washing the cell monolayer with complete medium and PBS. The cells were harvested by scraping, extracted by two-fold volume of acetonitrile and centrifuged at 13,000 rpm for 5 min. Drug levels were determined by HPLC.
# [7] = Cardiotoxicity, heart tissue histology; format: in vivo, mice; settings: treated for 1.5 months, H&E
# From the text: Heart tissue sections from mice treated with PTI for 1.5 months were examined and scored histologically, following H&E staining and light microscopy for tissue damage and for the presence of inflammatory cells.
# [8] = system: A549 human non-small cell lung cancer xenografts; assay: A549 lung cancer xenografts, treatment protocol, PTI; format: in vivo, mice; settings: 2 weeks, vs control
# Protocol: Lung cancer treatment protocol: A549 cells (1.5×106) suspended in 100 μl of PBS (25% Hydrogel) were injected subcutaneously into both the left and right flanks of 5-6-week old female NOD SCID mice (Taconic Farms, Germantown, N.Y.). When the average tumor volume reached 100 mm3, the mice were divided into 3 groups: vehicle, PTI 10 mg/kg/d, and PTI 15 mg/kg/d (n=10/group); treatment lasted 2 weeks. At the end of the treatment, animals were euthanized and the xenografts were harvested.
# A549 xenografts = assay: Immunohistochemistry of A549 xenografts (PCNA, TUNEL); format: in vivo, mice
# Protocol: (§1) Staining for PCNA and p-p65 (Ser276) was performed as described. Apoptosis was determined immunohistochemically by the terminal deoxynucleotidyl transferase-mediated deoxyuridine triphosphate-biotin nick end-labeling (TUNEL) assay.
# p65 subunit of NF-κB = assay: NF-κB activation in A549 xenografts (p-p65 Ser276); format: in vivo, mice; settings: vs controls
# Protocol: as §1
# To further explore the mechanism of action of PTI, we investigated the activation of NF-κB in the A549 lung tumor xenografts from the control and PTI-treated groups, by determining Ser276 phosphorylation of the p65 subunit of NF-κB. A shown in FIG. 28, compared to controls, PTI decreased the levels of p-p65 Ser276 in tumor xenografts by 90.0% (p=0.004).
# COX-1 = target: T1, COX-1 (Ovis aries, UniProt P05979); assay: COX fluorescent inhibitor screening assay, COX-1; format: biochemical
# T1 construct: purchased Cayman Chemical Co
# T1 sequence (P05979 25-600): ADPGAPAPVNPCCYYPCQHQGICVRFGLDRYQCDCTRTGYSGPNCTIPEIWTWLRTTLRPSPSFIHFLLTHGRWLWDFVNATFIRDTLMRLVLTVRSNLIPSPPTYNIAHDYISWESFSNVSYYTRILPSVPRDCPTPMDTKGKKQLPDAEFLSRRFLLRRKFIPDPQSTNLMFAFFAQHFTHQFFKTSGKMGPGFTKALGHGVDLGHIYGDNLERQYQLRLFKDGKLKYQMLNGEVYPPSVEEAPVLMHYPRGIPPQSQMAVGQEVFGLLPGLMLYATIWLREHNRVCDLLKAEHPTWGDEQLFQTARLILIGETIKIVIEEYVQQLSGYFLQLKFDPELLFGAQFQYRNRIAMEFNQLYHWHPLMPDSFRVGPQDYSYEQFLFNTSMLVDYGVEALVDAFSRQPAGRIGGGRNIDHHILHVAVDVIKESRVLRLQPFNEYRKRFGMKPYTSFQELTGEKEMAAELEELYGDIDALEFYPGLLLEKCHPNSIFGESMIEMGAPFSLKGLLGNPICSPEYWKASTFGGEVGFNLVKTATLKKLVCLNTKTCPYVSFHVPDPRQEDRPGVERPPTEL
# COX-2 = COX-2 (Homo sapiens, UniProt P35354); assay: COX fluorescent inhibitor screening assay, COX-2; format: biochemical
# COX-2, sequence (P35354 18-604): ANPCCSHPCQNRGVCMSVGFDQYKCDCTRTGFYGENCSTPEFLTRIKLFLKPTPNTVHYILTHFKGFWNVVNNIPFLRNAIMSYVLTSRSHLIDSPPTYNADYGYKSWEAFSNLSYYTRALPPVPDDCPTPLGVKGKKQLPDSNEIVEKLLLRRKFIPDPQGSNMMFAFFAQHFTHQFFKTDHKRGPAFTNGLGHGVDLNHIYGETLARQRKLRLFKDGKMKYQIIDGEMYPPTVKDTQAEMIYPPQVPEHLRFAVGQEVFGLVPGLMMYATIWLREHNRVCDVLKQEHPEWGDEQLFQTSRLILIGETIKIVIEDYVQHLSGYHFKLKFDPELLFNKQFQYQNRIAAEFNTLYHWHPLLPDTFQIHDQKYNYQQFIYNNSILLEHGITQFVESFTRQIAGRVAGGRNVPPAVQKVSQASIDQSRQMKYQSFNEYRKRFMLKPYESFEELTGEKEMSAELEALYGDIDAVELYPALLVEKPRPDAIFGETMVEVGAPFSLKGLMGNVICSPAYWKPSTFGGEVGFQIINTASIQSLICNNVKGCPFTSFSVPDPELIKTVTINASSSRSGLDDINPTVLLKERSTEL
# [9] = Gastrointestinal toxicity in rats
# [10] = system: Salmonella typhimurium (TA98 and TA100); assay: Salmonella plate incorporation mutagenicity assay; settings: 1.5 to 5000 μg/plate, with or without rat liver S9
# liver esterases = assay: Stability of PTI to purified porcine liver esterases; settings: pig, half-life
# porcine liver esterases = assay: as above; settings: 4 IU/ml porcine liver esterase, 20 min
# [11] = Stability of PTI in complete media containing 10% serum; settings: after 24 h
# [12] = Pharmacokinetics of PTI and indomethacin, single i.p. dose
# U87 glioblastoma cells = assay: Apoptosis (annexin V), PV and PGIA; format: cell-based, human; settings: 24 h; PGIA 200 μM, PV 40 μM, alone or together
# Protocol: Apoptosis: Cells (1.0×10^5 cells/well) were treated with or without PV, PGIA or valproic acid (VPA) for 24 or 48 h. After treatment, cells were trypsinized, stained with Annexin V-FITC (100× dilution, Invitrogen) and propidium iodide (PI) 0.5 μg/ml and the fluorescence intensity was analyzed by FACScaliber.
# [13] = Pharmacokinetic study of phosphosulindac amide and sulindac, single oral dose; format: in vivo, mice; settings: mouse, plasma, label = analyte
# [14] = Pharmacokinetics after inhalational administration of PS; format: in vivo, mice; settings: after 8 min inhalation, label = analyte
# [15] = 66 mg/kg, single oral dose of sulindac equimolar to PSA, read-out: AUC0-24 h, sulindac administration
# [16] = BALB/c nude, mouse, inhaled or intranasal, plasma
compound,measurement,setting,value
"NCCC[C@](N)(C(=O)O)C(F)F [DFMO, α-difluoromethylornithine, reference compound]","papilloma multiplicity, oral administration",skin papillomas; oral,failed to reduce papilloma multiplicity
same,reduction of tumor burden (average tumor volume/mouse),skin papillomas; topical,~90%
same,thickness of the epidermis,skin papillomas; topical,partial effect
same,reduction of tumor number (papillomas/mouse),skin papillomas; topical application,merely stabilized disease progression
same,luciferase/renilla activity,β-catenin signaling,1.18±0.01
"CC(C)Cc1ccc(C(C)C(=O)O)cc1 (stereo not drawn) [Ibuprofen, reference compound]",reduction based on lung tumor weight / lung weight,[1],19%
same,reduction of lung cancer based on fluorescence,[1],57%
same,IC50,U87 cells,≥ 1000 µM
"COc1ccc2c(c1)c(CC(=O)O)c(C)n2C(=O)c1ccc(Cl)cc1 [Indomethacin, indomethacin, reference compound]",decrease of proportion of BrdU positive cells,A549 cells [2],15%
same,proportion of cells in G0/G1 phase,SW480 cells,57.7%
same,reduction of tumor growth,SW480 colon cancer cells,no significant effect
same,PGE2 levels induced by the calcium ionophore A23187,PGE2 production,prevented the increase in PGE2 levels
same,AUC0-24 h (for PTI: PTI plus its metabolite),[3],500 µM·h
same,peak plasma level,[3],127 µM
same,time of peak plasma level,[3],1 h
CCOP(=O)(OCC)OCCCCOC(=O)C(C)c1ccc(CC(C)C)cc1 (stereo not drawn) [PI 132],latency values (mean±SD),[4],8.53 ± 0.81 s
same,IC50,U87 cells,98 µM
same,fold increase of cellular level over the other two compounds,A431 skin cancer cells,at least 300 fold
same,cellular content (cellular extract),A431 skin cancer cells; limit of detection 2.5 pmol,750 pmol
"CCOP(=O)(OCC)OCCc1ccc(OC(=O)Cc2c(C)n(C(=O)c3ccc(Cl)cc3)c3ccc(OC)cc23)cc1 [PTI, [1-(4-Chloro-benzoyl)-5-methoxy-2-methyl-1H-indol-3-yl]-acetic acid 4-[2-(diethoxy-phosphoryloxy)-ethyl]-phenyl ester]",IC50,MDA-MB-231,23 µM
same,IC50,HT29,87 µM
same,decrease of proportion of BrdU positive cells,A549 cells [2],96%
same,proportion of cells in G0/G1 phase,SW480 cells,69.7%
same,annexin V+ cells,A549 cells [5]; 1.5×IC50,12.3%
same,annexin V+ cells,A549 cells [5]; 2×IC50,71.4%
same,"cellular uptake, fold greater than indomethacin","A549 cells [6]; 6 h incubation, 50 to 200 μM",about 200 fold
same,"cellular uptake, fold greater than indomethacin",A549 cells [6]; 16 h,about 230 fold
same,cardiotoxicity,[7],No differences in cardiotoxicity
same,reduction of tumor volume,[8]; 10 mg/kg/d,68%
same,reduction of tumor volume,[8]; 15 mg/kg/d,91%
same,reduction of tumor growth,SW480 colon cancer cells,69%
same,cell proliferation (PCNA),"A549 xenografts; PTI-treated tumors, controls 59.7±7.5%",40.2±4.5%
same,apoptosis index (TUNEL),A549 xenografts; control 3.3±0.3%,5.8±1.2%
same,increase of apoptosis index,A549 xenografts; vs control,75.8%
same,decrease of p-p65 Ser276 levels in tumor xenografts,p65 subunit of NF-κB,90.0%
same,IC50,COX-1,905 µM
same,selectivity for COX-2 over COX-1,COX-2,12.6 fold
same,IC50,COX-2; purified COX-2,71.7 µM
same,PGE2 levels induced by the calcium ionophore A23187,PGE2 production,prevented the increase in PGE2 levels
same,reduction in gastrointestinal toxicity,[9]; PTI vs indomethacin,60%
same,rats that developed ulcers,"[9]; gavage 4 days, indomethacin 4.75 mg/kg/day, PTI 10 mg/kg/day",40%
same,genotoxicity (reverse mutations),[10],no significant genotoxicity
same,half-life,liver esterases; 2 IU/ml esterase,5 min
same,half-life,liver esterases; 4 IU/ml esterase,2 min
same,intact PTI remaining,porcine liver esterases,approximately 20%
same,hydrolyzed,[11],40%
same,Cmax,"[12]; mouse, in vivo, ip, 100 mg/kg",46 µM
same,plasma detectability of PTI,[12]; single i.p. 100 mg/kg PTI,undetectable at 4 h
same,time of maximum concentration of PTI,[12]; single i.p. 100 mg/kg PTI,2 h
CCCC(CCC)C(=O)OCCCCOP(=O)(OCC)OCC [PV],fold-increase of annexinV (+) cells,U87 glioblastoma cells,3.0 fold
"CSc1ccc(/C=C2/C(C)=C(CC(=O)O)c3cc(F)ccc32)cc1 [Sulindac sulfide 146, sulindac sulfide]",AUC(0-t),[13]; [15],691 µM·h
same,AUC(0-t),"[13]; single oral dose 100 mg/kg PSA, read-out: AUC0-24 h, PSA administration",17.9 µM·h
same,AUC,[14]; [16],66.9 µM·h
same,Tmax,[14]; lung,4 h
same,Tmax,[14]; plasma,4 h
"CC1=C(CC(=O)O)c2cc(F)ccc2/C1=C\c1ccc(S(C)(=O)=O)cc1 [Sulindac sulfone 147, sulindac sulfone]",AUC(0-t),[13]; [15],93.4 µM·h
same,Tmax,"[14]; BALB/c nude, mouse, inhaled or intranasal, lung, read-out: Tmax",8 h
same,AUC,[14]; [16],142 µM·h
same,Cmax,[14]; [16],10.4 µM
same,Tmax,"[14]; BALB/c nude, mouse, inhaled or intranasal, plasma, read-out: Tmax",8 h
CC1=C(CC(=O)O)c2cc(F)ccc2/C1=C\c1ccc([S+](C)[O-])cc1 (stereo not drawn) [Sulindac],AUC(0-t),[13]; [15],385 µM·h
same,AUC,[14]; [16],49.5 µM·h
same,IC50,U87 cells,≥ 1000 µM
